Values after ≈ are worked out from the molar mass of the structure shown. Where a name gives a salt, the structure may show the parent alone. Read-outs that look alike come from different tables or passages of the source.
Key:
[1] = system: H. pylori; experiment: MIC testing by broth dilution, H. pylori; assay type: cell-based, Helicobacter pylori
Summary of the method: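 Helicobacter pylori was tested using a standard broth dilution method in 96 well microplates, each well holding a standard dilution of the organism in 100 microliters of Brain Heart Infusion. Compounds started at 32 μg/ml in 200 microliters in the first well and were serially diluted from 32 to 0.06. Wells were read visually at 24 h, and the MIC was the well with no growth.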

[2] = system: S. epidermidis biofilm; experiment: S. epidermidis biofilm assay (activity tables); assay type: cell-based, Staphylococcus epidermidis
Procedure: Staphylococcal strains were cultured overnight in TSB at 37° C. with shaking, diluted in fresh medium to an OD600 of 0.01 and 200 W was dispensed into sterile flat bottom polystyrene 96 well microtiter plates (Costar 3596, Corning Inc.). […] Each compound and dilution was tested in triplicate. The plates were incubated overnight at 37° C. in a humidified incubator, without shaking and both growth and biofilm accumulation were determined at 16 h.
Following recording of turbidities, the culture medium was aspirated and the wells were washed three times with distilled water, blotted on paper towels, and fixed with 75% ethanol for 10 minutes.
To visualize biofilm material, 0.5% crystal violet was added to each well and after 5 minutes was removed and the wells washed three times with distilled water. Plates were read using a microplate reader at a wavelength of 570 nm. The dye was then extracted by adding 200 W of 95% ethanol, and the absorbance was read again at 570 nm. All assays were performed in triplicate and the mean and standard deviation determined. […]
(§1) Representative compounds of the invention were tested in a series of assays against a series of organisms as described above. […] The organisms tested include, C. difficile, H. pylori, C. jejuni, MRSA, S. epidermidis, and E. coli. S. epidermidis and E. coli were tested in the plank and biofilm assay. A disk diffusion assay was also used for C. difficile. Direct PFOR enzyme assays were also performed. All analogues and derivatives were not tested on every organism in every type of assay (the “-” in each table means that it was not tested).

[3] = system: S. epidermidis; experiment: MIC testing by broth dilution, S. epidermidis plank; assay type: cell-based, Staphylococcus epidermidis
Summary of the method: (§2)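 Media: LB (E. coli), Trypticase Soy (S. epidermidis), BHI (C. jejuni); plank cells. C. difficile on Wilkins Chalgrin agar, anaerobic Kirby-Bauer disks, zone vs NTZ zone ratio.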

[4] = system: C. jejuni; experiment: MIC testing by broth dilution, C. jejuni; assay type: cell-based, Campylobacter jejuni
Summary of the method: as §2

[5] = system: E. coli biofilm; experiment: E. coli biofilm assay (activity tables); assay type: cell-based, Escherichia coli
Procedure: A quantitative biofilm assay was used to determine the effect of NTZ on biofilm formation (41). Strain 042 was grown overnight at 37° C. with shaking and inoculated 1:100 in 200 μl culture medium in Costar 96-well, flat-bottom, polystyrene microtiter plates containing appropriate concentrations of NTZ. Plates were incubated statically at 37° C. in a humidified incubator. At 24 h, bacterial growth was measured by either transferring […] aliquots to another microtiter plate to determine turbidity or by diluting 100 μl aliquots 1:100 in 9.9 ml PBS for quantitative plate counts on LB medium. Bacterial counts in triplicate are reported as cfu/ml. Biofilm was visualized following staining with 0.5% crystal violet (41) and the absorbance was read at 570 nm using a microplate reader (Molecular Dynamics). All experiments were in triplicate and reported as mean and standard deviation.
A standard broth dilution protocol was used in 96 well microplates containing a standard dilution of the microorganism to be tested in 100 microliters of the appropriate medium. Appropriate medium: E. coli, LB medium; Staphylococcus strains, Trypticase Soy; and for H. pylori and C. jejuni, Brain Heart Infusion. The compounds to be tested were set at 32 μg/ml in 200 microliters in well one and then serially diluted to provide a range from 32 to 0.06. The wells were scored visually at 24 h. The well where there was no growth was recorded as the MIC. Clostridium difficile was tested by agar diffusion and disk diffusion (Kirby Bower) methods under anaerobic conditions on Wilkins Chalgrin agar. In these assays, zone of inhibited growth was measured and compared by relative ratio to the zone recorded for NTZ.
as §1

[6] = system: MRSA; experiment: MIC testing by broth dilution, MRSA; assay type: cell-based, Staphylococcus aureus
Summary of the method: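 Values are broth-dilution MICs, defined as the well showing no growth on visual reading after 24 h; the tested range was 32 to 0.06 μg/ml, in organism-specific media (LB, Trypticase Soy, Brain Heart Infusion). The C. difficile entries come instead from anaerobic Kirby-Bauer disk zones, normalised to NTZ.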

[7] = system: E. coli; experiment: MIC testing by broth dilution, E. coli plank; assay type: cell-based, Escherichia coli
Summary of the method: as §2

[8] = Furan analogues table, read-out: MIC H. pylori
[9] = planktonic, Furan analogues table, read-out: MIC S. epidermidis Plank
[10] = Furan analogues table, read-out: MIC C. jejuni
[11] = biofilm, Furan analogues table, read-out: MIC E. coli Biofilm
[12] = Furan analogues table, read-out: MIC MRSA
[13] = planktonic, Furan analogues table, read-out: MIC E. coli Plank
[14] = broth dilution, Brain Heart Infusion, 24 h, read-out: MIC (μM) H. pylori
[15] = broth dilution, Trypticase Soy, 24 h, read-out: MIC (μM) S. epidermidis Plank
[16] = broth dilution, Brain Heart Infusion, 24 h, read-out: MIC (μM) C. jejuni
[17] = biofilm, read-out: MIC (μM) E. coli Biofilm
[18] = broth dilution, Trypticase Soy, 24 h, read-out: MIC (μM) MRSA
[19] = broth dilution, LB medium, 24 h, read-out: MIC (μM) E. coli Plank

Compound	MIC [1, 14]	MIC (μM) S. epidermidis Biofilm [2]	MIC [3, 15]	MIC [4, 16]	MIC [5, 17]	MIC [6, 18]	MIC [7, 19]	also measured
O=C(Nc1ncc([N+](=O)[O-])s1)c1ccc(-c2cccc(C(F)(F)F)c2)o1 [VPC161197]	–	–	–	–	–	–	–	MIC [1, 8]: 1.1 µM (≈ 0.422 µg/mL); MIC S. epidermidis Biofilm ([2]; Furan analogues table): 5.7 µM (≈ 2.18 µg/mL); MIC [3, 9]: 5.7 µM (≈ 2.18 µg/mL); MIC [4, 10]: 8.5 µM (≈ 3.26 µg/mL); MIC [5, 11]: 90.8 µM (≈ 34.8 µg/mL); MIC [6, 12]: 11.4 µM (≈ 4.37 µg/mL); MIC [7, 13]: 90.8 µM (≈ 34.8 µg/mL)
N#Cc1cccc(C(=O)Nc2ncc([N+](=O)[O-])s2)c1 [VPC161173]	4.1 µM (≈ 1.12 µg/mL)	58.3 µM (≈ 16 µg/mL)	29.2 µM (≈ 8.01 µg/mL)	36.5 µM (≈ 10 µg/mL)	116.7 µM (≈ 32 µg/mL)	43.8 µM (≈ 12 µg/mL)	116.7 µM (≈ 32 µg/mL)	–
O=C(Nc1ncc([N+](=O)[O-])s1)c1ccc(-c2cccc([N+](=O)[O-])c2)o1 [VPC161190]	–	–	–	–	–	–	–	MIC [1, 8]: 6.9 µM (≈ 2.49 µg/mL); MIC S. epidermidis Biofilm ([2]; Furan analogues table): 11.1 µM (≈ 4 µg/mL); MIC [3, 9]: 11.1 µM (≈ 4 µg/mL); MIC [4, 10]: 16.7 µM (≈ 6.02 µg/mL); MIC [5, 11]: 88.8 µM (≈ 32 µg/mL); MIC [6, 12]: 44.4 µM (≈ 16 µg/mL); MIC [7, 13]: 88.8 µM (≈ 32 µg/mL)
CC(C)(C(=O)Nc1ncc([N+](=O)[O-])s1)C(=O)Nc1ncc([N+](=O)[O-])s1 [VPC16b1048]	20.7 µM (≈ 8 µg/mL)	41.4 µM (≈ 16 µg/mL)	82.8 µM (≈ 32 µg/mL)	82.8 µM (≈ 32 µg/mL)	82.8 µM (≈ 32 µg/mL)	82.8 µM (≈ 32 µg/mL)	82.8 µM (≈ 32 µg/mL)	–
CCCCCCCCCC(=O)Nc1ncc([N+](=O)[O-])s1 [VPC16b1043]	1.2 µM (≈ 0.359 µg/mL)	1.7 µM (≈ 0.509 µg/mL)	106.9 µM (≈ 32 µg/mL)	3.9 µM (≈ 1.17 µg/mL)	106.9 µM (≈ 32 µg/mL)	106.9 µM (≈ 32 µg/mL)	106.9 µM (≈ 32 µg/mL)	–
Cc1ncc([N+](=O)[O-])n1CCOC(=O)CCCC(=O)Nc1ncc([N+](=O)[O-])s1 [VPC161277]	1.8 µM (≈ 0.742 µg/mL)	2.4 µM (≈ 0.99 µg/mL)	77.6 µM (≈ 32 µg/mL)	29.1 µM (≈ 12 µg/mL)	77.6 µM (≈ 32 µg/mL)	77.6 µM (≈ 32 µg/mL)	77.6 µM (≈ 32 µg/mL)	–
N[C@@H](Cc1ccccc1)C(=O)Nc1ncc([N+](=O)[O-])s1 [VPC16a1028, (S)-2-Amino-N-(5-nitrothiazol-2-yl)-3-phenylpropanamide hydrochloride]	–	97.3 µM	–	–	–	–	–	MIC ([1]; Helicobacter pylori, 24 h, read-out: MIC (μM) H. pylori): 18.3 µM; MIC ([3]; Staphylococcus epidermidis, 24 h, read-out: MIC (μM) S. epidermidis Plank): 97.3 µM; MIC ([4]; Campylobacter jejuni, 24 h, read-out: MIC (μM) C. jejuni): 36.5 µM; MIC ([5]; Escherichia coli, read-out: MIC (μM) E. coli Biofilm): 48.7 µM; MIC ([6]; Staphylococcus aureus, MRSA, 24 h, read-out: MIC (μM) MRSA): 97.3 µM; MIC ([7]; Escherichia coli, 24 h, read-out: MIC (μM) E. coli Plank): 97.3 µM
COc1ccccc1C(=O)Nc1ncc([N+](=O)[O-])s1 [VPC161192]	1.8 µM (≈ 0.503 µg/mL)	114.6 µM (≈ 32 µg/mL)	114.6 µM (≈ 32 µg/mL)	17.9 µM (≈ 5 µg/mL)	57.3 µM (≈ 16 µg/mL)	114.6 µM (≈ 32 µg/mL)	114.6 µM (≈ 32 µg/mL)	–
CC1=C(C(=O)Nc2ncc([N+](=O)[O-])s2)Cc2ccccc21 [VPC16a1018]	0.7 µM (≈ 0.211 µg/mL)	26.5 µM (≈ 7.99 µg/mL)	106.2 µM (≈ 32 µg/mL)	10.7 µM (≈ 3.22 µg/mL)	53.1 µM (≈ 16 µg/mL)	106.2 µM (≈ 32 µg/mL)	106.2 µM (≈ 32 µg/mL)	–
CC(=O)Nc1ncc([N+](=O)[O-])s1 [VPC16a1033]	3.5 µM (≈ 0.655 µg/mL)	21.4 µM (≈ 4.01 µg/mL)	21.4 µM (≈ 4.01 µg/mL)	14.0 µM (≈ 2.62 µg/mL)	42.7 µM (≈ 7.99 µg/mL)	171.0 µM (≈ 32 µg/mL)	42.7 µM (≈ 7.99 µg/mL)	–
COc1ccc(-c2ccc(F)cc2F)cc1C(=O)Nc1ncc([N+](=O)[O-])s1 [VPC161171]	0.8 µM (≈ 0.313 µg/mL)	81.8 µM (≈ 32 µg/mL)	81.8 µM (≈ 32 µg/mL)	40.9 µM (≈ 16 µg/mL)	81.8 µM (≈ 32 µg/mL)	81.8 µM (≈ 32 µg/mL)	81.8 µM (≈ 32 µg/mL)	–
O=C(Nc1ncc([N+](=O)[O-])s1)c1ccc([N+](=O)[O-])cc1 [VPC161170]	1.3 µM (≈ 0.383 µg/mL)	3.4 µM (≈ 1 µg/mL)	10.2 µM (≈ 3 µg/mL)	13.6 µM (≈ 4 µg/mL)	108.8 µM (≈ 32 µg/mL)	20.4 µM (≈ 6 µg/mL)	81.6 µM (≈ 24 µg/mL)	–
O=C(Nc1ncc([N+](=O)[O-])s1)c1ncc([N+](=O)[O-])s1 [VPC161280]	–	–	–	–	–	–	–	MIC ([1]; Thiophene analogues table, read-out: MIC H. pylori): 6.6 µM (≈ 1.99 µg/mL); MIC S. epidermidis Biofilm ([2]; Thiophene analogues table): 6.6 µM (≈ 1.99 µg/mL); MIC ([3]; planktonic, Thiophene analogues table, read-out: MIC S. epidermidis Plank): 5.0 µM (≈ 1.51 µg/mL); MIC ([4]; Thiophene analogues table, read-out: MIC C. jejuni): 13.3 µM (≈ 4.01 µg/mL); MIC ([5]; biofilm, Thiophene analogues table, read-out: MIC E. coli Biofilm): 3.3 µM (≈ 0.994 µg/mL); MIC ([6]; Thiophene analogues table, read-out: MIC MRSA): 53.1 µM (≈ 16 µg/mL); MIC ([7]; planktonic, Thiophene analogues table, read-out: MIC E. coli Plank): 39.8 µM (≈ 12 µg/mL)
O=C(Nc1ncc([N+](=O)[O-])s1)c1ccccc1C(F)(F)F [VPC161182]	1.6 µM (≈ 0.508 µg/mL)	50.4 µM (≈ 16 µg/mL)	25.2 µM (≈ 7.99 µg/mL)	18.9 µM (≈ 6 µg/mL)	100.9 µM (≈ 32 µg/mL)	25.2 µM (≈ 7.99 µg/mL)	100.9 µM (≈ 32 µg/mL)	–
O=C(O)CCCC(=O)Nc1ncc([N+](=O)[O-])s1 [VPC161273]	5.8 µM (≈ 1.5 µg/mL)	123.4 µM (≈ 32 µg/mL)	–	123.4 µM (≈ 32 µg/mL)	61.7 µM (≈ 16 µg/mL)	123.4 µM (≈ 32 µg/mL)	123.4 µM (≈ 32 µg/mL)	–

Source: US8835644B2, “Broad spectrum benzothiophene-nitrothiazolide and other antimicrobials” (University of Virginia Patent Foundation, priority 2009, dated 2014)
